Data from US5753617A, “Peptide inhibitors of cellular adhesion” (Centocor, Inc., priority 1995, dated 1998).
Where “and” joins values, the source holds several entries; their conditions need not be identical. Equal entries are not always repeated. Where two headings read alike, the source gives them in different places. Where a SMILES comes first, the peptide text is derived from it. Bridges are numbered along the chain shown (N, C = ends). [ ]: non-standard residue; d: D form.

Experiments:
P-selectin = target: T1, P-selectin (Homo sapiens, UniProt P16109); experiment: Inhibition of human neutrophil adhesion to purified P-selectin immobilized on plastic wells; type: cell-based; settings: inhibiting the binding of human neutrophils to P-selectin
T1 construct: P-selectin is isolated from human platelet lysates; from tissue; host or cells: human platelets (outdated platelet packs from a blood bank)
T1 sequence (P16109 42-830): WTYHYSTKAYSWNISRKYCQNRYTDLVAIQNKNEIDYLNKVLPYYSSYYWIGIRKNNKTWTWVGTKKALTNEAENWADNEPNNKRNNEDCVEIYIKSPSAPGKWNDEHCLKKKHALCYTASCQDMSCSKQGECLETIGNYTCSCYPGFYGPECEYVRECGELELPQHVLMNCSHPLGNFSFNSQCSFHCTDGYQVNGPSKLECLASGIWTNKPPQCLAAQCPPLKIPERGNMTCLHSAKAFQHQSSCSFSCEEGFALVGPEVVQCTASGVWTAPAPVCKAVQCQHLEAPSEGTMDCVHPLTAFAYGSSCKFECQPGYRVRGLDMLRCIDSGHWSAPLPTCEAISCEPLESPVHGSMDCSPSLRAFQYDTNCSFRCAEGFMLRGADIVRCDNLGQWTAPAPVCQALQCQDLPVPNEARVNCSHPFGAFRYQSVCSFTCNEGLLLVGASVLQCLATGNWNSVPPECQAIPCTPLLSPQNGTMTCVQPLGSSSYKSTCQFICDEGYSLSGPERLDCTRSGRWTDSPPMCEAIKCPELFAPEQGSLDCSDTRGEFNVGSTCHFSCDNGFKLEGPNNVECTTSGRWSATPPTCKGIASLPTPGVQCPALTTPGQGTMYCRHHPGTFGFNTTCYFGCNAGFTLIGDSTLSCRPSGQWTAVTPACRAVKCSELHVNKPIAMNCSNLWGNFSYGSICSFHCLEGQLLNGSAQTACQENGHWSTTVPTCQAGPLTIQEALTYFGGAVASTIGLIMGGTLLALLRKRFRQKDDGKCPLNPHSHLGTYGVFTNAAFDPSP
Procedure, shortened: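 Isolated human neutrophils (2×10^5 per well) in HBSS with Ca2+/Mg2+ and HSA added to wells coated overnight at 4° C with platelet-derived P-selectin (5 micrograms/mL), HSA-blocked; 20 min at 22° C. Nonadherent cells removed by inverted centrifugation at 150 g; adherent cells quantified by myeloperoxidase activity.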

[1] = disulfide bond, water

Compound | IC50 (P-selectin) | further results
CC(C)[C@@H](NC(=O)[C@@H](Cc1c[nH]c2ccccc12)NC(=O)[C@H](NC(=O)[C@@H](Cc1c[nH]c2ccccc12)NC(=O)[C@H]1CSSC[C@@H](NC(=O)[C@@H](CCCCN)NC(=O)[C@H](N)CCCNC(=N)N)C(=O)NCC(=O)N[C@H](CCCCN)C(=O)N1)[C@H](C)O)C(N)=O [(55)] (H-[dR][dK][dC]G[dK][dC][dW][dT][dW][dV]-NH2; disulfide 3-6) | 59.7 µM | ring closure, yield of all isomers ([1]; from CC(C)[C@@H](NC(=O)[C@@H](Cc1c[nH]c2ccccc12)NC(=O)[C@H](NC(=O)[C@@H](Cc1c[nH]c2ccccc12)NC(=O)[C@@H](CS)NC(=O)[C@@H](CCCCN)NC(=O)CNC(=O)[C@@H](CS)NC(=O)[C@@H](CCCCN)NC(=O)[C@H](N)CCCNC(=N)N)[C@H](C)O)C(N)=O, DMSO, 0.175 mM, 120.0 h): 10.6%
CC(C)[C@@H](NC(=O)[C@@H](Cc1c[nH]c2ccccc12)NC(=O)[C@H](NC(=O)[C@@H](Cc1c[nH]c2ccccc12)NC(=O)[C@H]1CSSC[C@@H](NC(=O)[C@@H](CCCCN)NC(=O)[C@H](N)CCCNC(=N)N)C(=O)N2CCC[C@@H]2C(=O)N[C@@H](Cc2ccccc2)C(=O)N1)[C@H](C)O)C(N)=O [(57)] (H-[dR][dK][dC][dP]F[dC][dW][dT][dW][dV]-NH2; disulfide 3-6) | 70.4 µM | ring closure, yield of all isomers ([1]; from CC(C)[C@@H](NC(=O)[C@@H](Cc1c[nH]c2ccccc12)NC(=O)[C@H](NC(=O)[C@@H](Cc1c[nH]c2ccccc12)NC(=O)[C@@H](CS)NC(=O)[C@H](Cc1ccccc1)NC(=O)[C@H]1CCCN1C(=O)[C@@H](CS)NC(=O)[C@@H](CCCCN)NC(=O)[C@H](N)CCCNC(=N)N)[C@H](C)O)C(N)=O, air, Cu wire, NH4OH, 0.42 mM, 25.0 °C, 6.0 h): 8.7%
CC(C)[C@@H](NC(=O)[C@@H](Cc1c[nH]c2ccccc12)NC(=O)[C@H](NC(=O)[C@@H](Cc1c[nH]c2ccccc12)NC(=O)[C@H]1CSSC[C@@H](NC(=O)[C@@H](CCCCN)NC(=O)[C@H](N)CCCNC(=N)N)C(=O)NCC(=O)N[C@@H](CCC(N)=O)C(=O)N1)[C@H](C)O)C(N)=O [(65)] (H-[dR][dK][dC]GQ[dC][dW][dT][dW][dV]-NH2; disulfide 3-6) | 46.2 µM and 78.3 µM | ring closure, yield of all isomers ([1]; from CC(C)[C@@H](NC(=O)[C@@H](Cc1c[nH]c2ccccc12)NC(=O)[C@H](NC(=O)[C@@H](Cc1c[nH]c2ccccc12)NC(=O)[C@@H](CS)NC(=O)[C@H](CCC(N)=O)NC(=O)CNC(=O)[C@@H](CS)NC(=O)[C@@H](CCCCN)NC(=O)[C@H](N)CCCNC(=N)N)[C@H](C)O)C(N)=O, Cu wire, NH4OH (printed NH2OH), 3.16 mM, 20.0 h): 6.1%
CC(C)[C@@H](NC(=O)[C@@H](Cc1c[nH]c2ccccc12)NC(=O)[C@H](NC(=O)[C@@H](Cc1c[nH]c2ccccc12)NC(=O)[C@H]1CSSC[C@@H](NC(=O)[C@@H](CCCCN)NC(=O)[C@H](N)CCCNC(=N)N)C(=O)NCC(=O)N[C@@H](CCC(=O)O)C(=O)N1)[C@H](C)O)C(N)=O [(66)] (H-[dR][dK][dC]GE[dC][dW][dT][dW][dV]-NH2; disulfide 3-6) | 287 µM | ring closure, yield of all isomers ([1]; from CC(C)[C@@H](NC(=O)[C@@H](Cc1c[nH]c2ccccc12)NC(=O)[C@H](NC(=O)[C@@H](Cc1c[nH]c2ccccc12)NC(=O)[C@@H](CS)NC(=O)[C@H](CCC(=O)O)NC(=O)CNC(=O)[C@@H](CS)NC(=O)[C@@H](CCCCN)NC(=O)[C@H](N)CCCNC(=N)N)[C@H](C)O)C(N)=O, Cu wire, NH4OH, 3.16 mM, 20.0 h): 7.4%
CC[C@H](C)[C@@H]1NC(=O)CNC(=O)[C@H](NC(=O)[C@@H](CCCCN)NC(=O)[C@H](N)CCCNC(=N)N)CSSC[C@H](C(=O)N[C@H](Cc2c[nH]c3ccccc23)C(=O)N[C@@H](C(=O)N[C@H](Cc2c[nH]c3ccccc23)C(=O)N[C@@H](C(N)=O)C(C)C)[C@H](C)O)NC1=O [(68)] (H-[dR][dK][dC]GI[dC][dW][dT][dW][dV]-NH2; disulfide 3-6) | 3.7 µM | ring closure, yield of all isomers ([1]; from CC[C@H](C)[C@H](NC(=O)CNC(=O)[C@@H](CS)NC(=O)[C@@H](CCCCN)NC(=O)[C@H](N)CCCNC(=N)N)C(=O)N[C@H](CS)C(=O)N[C@H](Cc1c[nH]c2ccccc12)C(=O)N[C@@H](C(=O)N[C@H](Cc1c[nH]c2ccccc12)C(=O)N[C@@H](C(N)=O)C(C)C)[C@H](C)O, Cu wire, NH4OH, 3.2 mM, 20.0 h): 2.8%
CC(C)C[C@@H]1NC(=O)CNC(=O)[C@H](NC(=O)[C@@H](CCCCN)NC(=O)[C@H](N)CCCNC(=N)N)CSSC[C@H](C(=O)N[C@H](Cc2c[nH]c3ccccc23)C(=O)N[C@@H](C(=O)N[C@H](Cc2c[nH]c3ccccc23)C(=O)N[C@@H](C(N)=O)C(C)C)[C@H](C)O)NC1=O [(69)] (H-[dR][dK][dC]GL[dC][dW][dT][dW][dV]-NH2; disulfide 3-6) | 146 µM | ring closure, yield of all isomers ([1]; from CC(C)C[C@H](NC(=O)CNC(=O)[C@@H](CS)NC(=O)[C@@H](CCCCN)NC(=O)[C@H](N)CCCNC(=N)N)C(=O)N[C@H](CS)C(=O)N[C@H](Cc1c[nH]c2ccccc12)C(=O)N[C@@H](C(=O)N[C@H](Cc1c[nH]c2ccccc12)C(=O)N[C@@H](C(N)=O)C(C)C)[C@H](C)O, DMSO, 0.252 mM, 25.0 °C, 96.0 h): 8.3%
CC(C)[C@@H](NC(=O)[C@@H](Cc1c[nH]c2ccccc12)NC(=O)[C@H](NC(=O)[C@@H](Cc1c[nH]c2ccccc12)NC(=O)[C@H]1CSSC[C@@H](NC(=O)[C@@H](CCCCN)NC(=O)[C@H](N)CCCNC(=N)N)C(=O)N[C@@H](CCCCN)C(=O)N[C@@H](Cc2ccccc2)C(=O)N1)[C@H](C)O)C(N)=O [(70)] (H-[dR][dK][dC]KF[dC][dW][dT][dW][dV]-NH2; disulfide 3-6) | 85.9 µM | ring closure, yield of all isomers ([1]; from CC(C)[C@@H](NC(=O)[C@@H](Cc1c[nH]c2ccccc12)NC(=O)[C@H](NC(=O)[C@@H](Cc1c[nH]c2ccccc12)NC(=O)[C@@H](CS)NC(=O)[C@H](Cc1ccccc1)NC(=O)[C@H](CCCCN)NC(=O)[C@@H](CS)NC(=O)[C@@H](CCCCN)NC(=O)[C@H](N)CCCNC(=N)N)[C@H](C)O)C(N)=O, DMSO, 0.708 mM, 48.0 h): 8.8%
CC(C)[C@@H](NC(=O)[C@@H](Cc1c[nH]c2ccccc12)NC(=O)[C@H](NC(=O)[C@@H](Cc1c[nH]c2ccccc12)NC(=O)[C@H]1CSSC[C@@H](NC(=O)[C@@H](CCCCN)NC(=O)[C@H](N)CCCNC(=N)N)C(=O)NCC(=O)N[C@@H](CCCCN)C(=O)N1)[C@H](C)O)C(N)=O [(71)] (H-[dR][dK][dC]GK[dC][dW][dT][dW][dV]-NH2; disulfide 3-6) | 2000 µM | ring closure, yield of all isomers ([1]; from CC(C)[C@@H](NC(=O)[C@@H](Cc1c[nH]c2ccccc12)NC(=O)[C@H](NC(=O)[C@@H](Cc1c[nH]c2ccccc12)NC(=O)[C@@H](CS)NC(=O)[C@H](CCCCN)NC(=O)CNC(=O)[C@@H](CS)NC(=O)[C@@H](CCCCN)NC(=O)[C@H](N)CCCNC(=N)N)[C@H](C)O)C(N)=O, DMSO, 0.181 mM, 72.0 h): 10.4%
CC(C)[C@@H](NC(=O)[C@@H](Cc1c[nH]c2ccccc12)NC(=O)[C@H](NC(=O)[C@H]1CCCN1C(=O)[C@H]1CSSC[C@@H](NC(=O)[C@@H](CCCCN)NC(=O)[C@H](N)CCCNC(=N)N)C(=O)NCC(=O)N[C@@H](Cc2ccccc2)C(=O)N1)[C@H](C)O)C(N)=O [(76)] (H-[dR][dK][dC]GF[dC][dP][dT][dW][dV]-NH2; disulfide 3-6) | 105 µM | ring closure, yield of all isomers ([1]; from CC(C)[C@@H](NC(=O)[C@@H](Cc1c[nH]c2ccccc12)NC(=O)[C@H](NC(=O)[C@H]1CCCN1C(=O)[C@@H](CS)NC(=O)[C@H](Cc1ccccc1)NC(=O)CNC(=O)[C@@H](CS)NC(=O)[C@@H](CCCCN)NC(=O)[C@H](N)CCCNC(=N)N)[C@H](C)O)C(N)=O, DMSO, 0.14 mM, 192.0 h): 20.6%
CC(C)[C@@H](NC(=O)[C@@H](Cc1ccccc1)NC(=O)[C@H](NC(=O)[C@@H](Cc1c[nH]c2ccccc12)NC(=O)[C@H]1CSSC[C@@H](NC(=O)[C@@H](CCCCN)NC(=O)[C@H](N)CCCNC(=N)N)C(=O)NCC(=O)N[C@@H](Cc2ccccc2)C(=O)N1)[C@H](C)O)C(N)=O [(79)] (H-[dR][dK][dC]GF[dC][dW][dT][dF][dV]-NH2; disulfide 3-6) | 7.7 µM | ring closure, yield of all isomers ([1]; from CC(C)[C@@H](NC(=O)[C@@H](Cc1ccccc1)NC(=O)[C@H](NC(=O)[C@@H](Cc1c[nH]c2ccccc12)NC(=O)[C@@H](CS)NC(=O)[C@H](Cc1ccccc1)NC(=O)CNC(=O)[C@@H](CS)NC(=O)[C@@H](CCCCN)NC(=O)[C@H](N)CCCNC(=N)N)[C@H](C)O)C(N)=O, DMSO, 0.101 mM): 15.2%
